Reference: patent US5567805A, “The cellular receptor for the CS3 peptide of human immunodeficiency virus” (priority 1994, dated 1996)

Key:
[1] = tested on: CD4; experiment: CD4 expression on RH9 cells stimulated with TPA; type: cell-based, human
Description: (§1) FIG. 11. Cultures of RH9 cells were incubated with 10 ng/ml PMA (TPA) or 10 μg/ml antibody to the CD3 cell surface antigen or in medium alone. Comparisons are presented for each day of analysis for expression of CD4 (left panel) or CS3 binding (right panel). 0.50% of RH9 cells bound CS3-HSA-FITC. Relative to control cultures treatment with anti-CD3 increased CS3 domain expressing cells by 71% at 48 hours and 56% at 72 hours, while TPA increased CS3-binding by 32% at 72 hours. CS3-HSA-FITC fluorescence intensity, reflecting the number of receptors per cell, increased while CD4 expression decreased in intensity and number of positive cells (8% at 24 hours).

[2] = tested on: CS3 binding domain; experiment: CS3 binding on RH9 cells stimulated with anti-CD3 or TPA; type: cell-based, human
Description: as §1

Question: `CCCCCCCCCCCCCC(=O)O[C@@H]1[C@@H](C)[C@@]2(O)[C@@H](C=C(CO)C[C@]3(O)C(=O)C(C)=C[C@@H]23)[C@@H]2C(C)(C)[C@]12OC(C)=O` [TPA, tetraphorbol 13-myristyl acetate] was tested. Which “CD4 expression after treatment” value [1] did it give?
Answer: The value was “lost”.

Question: And the “CS3 binding / receptor density after stimulation” value [2]?
Answer: The value was “CS3 binding was increased”.

Question: What about the “increase in CS3 domain expressing cells / CS3-binding relative to control cultures” value ([2]; 72 hours) of the same compound?
Answer: Its value is 32%.
